Data taken from patent US7412279B2, “Systems and methods for targeted magnetic resonance imaging of the vascular system” (Epix Pharmaceuticals, Inc., priority 2001, dated 2008).

Key:
thrombus [1] = assay: In vivo protocol: vascular agent followed by targeted agent, guinea pig jugular vein thrombus; set-up: species or system guinea pig (Hartley male); conditions: Example 1, 100 μmol/kg
Procedure: One procedure for in vivo imaging of a stationary target within the vascular system (e.g., a thrombus) with a vascular agent (e.g., an extracellular contrast agent or a blood pool agent), and a targeted contrast agent is as follows: A 600 g guinea pig (Hartley male) is anaesthetized. An incision is made in the throat and one of the jugular veins is isolated. A 1 cm section of the jugular vein is isolated with vascular clamps. Freshly drawn blood from the animal (50 μL) is mixed with human thrombin (50 μL, 4 units) and injected into the clamped segment of the vein. Four minutes after injection, the clamps are removed and the thrombus is allowed to age for 30 minutes. GdDTPA (Magnevist®), 100 μmol/kg, an extracellular contrast agent, is injected and the throat area of the guinea pig is imaged using the following pulse sequence on a GE Medical Systems 1.5T MRI: Tl-weighted SPGR, TE=3.1, TR=22, flip angle=40°. […] After 30 minutes, GdDTPA has cleared from the blood and a stationary target (thrombus) targeted MRI agent is injected at a dose of 6 μmol/kg. […]

thrombus [2] = assay: In vivo MRI of a jugular vein thrombus in the guinea pig, extracellular vascular agent followed by targeted agent; set-up: species or system guinea pig (Hartley male); conditions: vascular MR image
Procedure: A 600 g guinea pig (Hartley male) was anaesthetized with a cocktail of Ketamine (50 mg/kg), Aceapromazine (2.5 mg/kg), and Rompon (5 mg/kg), and anesthesia maintained with sodium pentobarbital (approx.35 mg/kg as needed). An incision was made in the throat and one of the jugular veins was isolated. A 1 cm section of the jugular vein was isolated with vascular clamps. Freshly drawn blood from the animal (50 μL) was mixed with human thrombin (50 uL, 4 units) and injected into the clamped segment of the vein. Four minutes after injection, the clamps were removed and the thrombus was allowed to age for 30 minutes.
The animal was placed inside a General Electric Signa LxCVi 1.5 tesla scanner and imaged using a 3D RF spoiled gradient echo sequence (SPGR) with the following parameters TR=22 ms, TE=3.1 ms, flip angle=40 degree, field of view=8 cm, acquisition bandwith=31.25 kHz. After one scan, an extracellular vascular MRI contrast agent, GdDTPA (Magnevist®), 100 μmol/kg, was injected via a catheter in the carotid artery. The image sequence was repeated 5 times over the next 30 minutes to acquire the vascular MRI data set. […]

thrombus [3] = assay: In vivo MRI of thrombi in the rabbit carotid artery (crush injury) and jugular vein; set-up: species or system New Zealand White rabbit
Procedure: A 2.5 kg female New Zealand White rabbit was anesthetized with a cocktail of Ketamine (50 mg/kg), Aceapromazine (2.5 mg/kg), and Rompon (5 mg/kg), and anesthesia maintained with sodium pentobarbital (approx.35 mg/kg as needed). An i.v. catheter (24 g) was placed into the ear vein and the ear artery. The jugular vein and carotid artery were isolated. A stenosis was created in the carotid artery by placing an 18 g needle on top of the vessel and then suturing it into place with 3-0 suture. The needle was then removed. A 5 mm portion of the artery was then segmented off distally to the stenosis with microvascular clips. The artery was crushed twice along the 5 mm section. The proximal vascular clip was released to allow blood flow into the section for circa 3 sec. The clip was reapplied and the artery was crushed twice again along the 5 mm section. After 4 minutes, the clips were removed. A 5 mm segment of the jugular vein was isolated with microvascular clips. A thrombus was created by injecting 100 μL of a 3.7 units thrombin, 0.06 M CaCl2, rabbit whole blood mixture. After 4 minutes, the clips were removed.
The thrombi were allowed to age for 50 minutes. A 1.0 mL solution of a 5 mM targeted contrast agent (Structure III, 2 μmol/kg) was administered via the ear vein. […]

With `O=C([O-])CN(CCN(CC(=O)[O-])CC(=O)O)CCN(CC(=O)[O-])CC(=O)O.[Gd+3]` [GdDTPA] the “enhancement of the thrombus” value (thrombus [1]) was “no enhancement”, the “enhancement of the vasculature” value (thrombus [1]; immediately after injection) was “some enhancement” and the “enhancement of the vascular system” value (thrombus [2]; Example 10, 100 μmol/kg via carotid artery catheter) was 4 fold. For the same compound, the “enhancement of the thrombus” value (thrombus [2]; Example 10, 100 μmol/kg) was “no observable enhancement”.

In the case of Gd-DTPA-BSA, the “visibility of blood vessels (carotid arteries, jugular veins) in MIP” value (thrombus [3]; Example 6, 80 μmol Gd/kg, image acquired immediately after injection) is reported as “readily visible” and the “signal intensity of both the blood and thrombus” value (thrombus [3]; Example 9, 80 μmol Gd/kg, injected 80 minutes after the targeted agent) is reported as “increased dramatically”.
